Values of other authors as cited in patent US6900239B2, “Tumor chemopotentiation using isocoumarin derivatives” (ILWZ ILEX Products, Inc., priority 2000, dated 2005).

Conditions: in vivo; cited from earlier work

COc1cc(O)c2c(=O)oc(C(C)C(=O)O)cc2c1 (stereo not shown) [NM-3, 2-(8-hydroxy-6-methoxy-1-oxo-1H-2-benzopyran-3-yl) propionic acid]
Stability: highly stable
